These results are taken from article PMC8247773, “Benzohydrazide and Phenylacetamide Scaffolds: New Putative ParE Inhibitors” (Frontiers in Bioengineering and Biotechnology, 2021).

In test [1] the test system is Staphylococcus epidermis (NCIM 2493). More on the design: method as in Yele et al., 2020, 2021. To be noted: ref Yele et al., 2020, 2021; cited from earlier work.
Test [2] has as its system Klebsiella pneumonia (NCIM 2706). Also noted: method as in Yele et al., 2020, 2021. To be noted: ref Yele et al., 2020, 2021; cited from earlier work.
For test [3], the system named is MRSA (NCIM 5021). Kind of test: Antibacterial susceptibility test, microbroth dilution MIC. It counts as cell-based, methicillin-resistant Staphylococcus aureus. To be noted: mean ± SD. In general terms: Broth dilution looks for growth in wells or tubes with falling amounts of substance.
Test [4] concerns Staphylococcus aureus (NCIM 5022). Also noted: method as in Yele et al., 2020, 2021. The note with it: ref Yele et al., 2020, 2021; cited from earlier work.
The subject of test [5] is MRSA (ATCC43300). Kind of test: Antibacterial susceptibility test, microbroth dilution MIC. To be noted: mean ± SD. It counts as cell-based, methicillin-resistant Staphylococcus aureus.
Test [6] has as its system MRSA (ATCC43300). Kind of test: Minimum bactericidal concentration (MBC). The class given is cell-based, methicillin-resistant Staphylococcus aureus. The method, then:
(§1) MBC can be defined as the minimum concentration of a compound required to kill the bacteria over a fixed period under precise conditions. […] Colonies were counted, and colony forming unit (CFU) per milliliter was calculated.

Test [7] concerns MRSA (NCIM 5021). Kind of test: Minimum bactericidal concentration (MBC). The class given is cell-based, methicillin-resistant Staphylococcus aureus. The procedure:
as §1

The subject of test [8] is Pseudomonas aeruginosa (NCIM 2036). Also noted: method as in Yele et al., 2020, 2021. To be noted: ref Yele et al., 2020, 2021; cited from earlier work.
Test [9] concerns Escherichia coli (NCIM 2065). Kind of test: Antibacterial susceptibility test, microbroth dilution MIC. The class given is cell-based. The note with it: E. Coli (NCIM 2065); mean ± SD.
Test [10] deals with Escherichia coli (NCIM 2567). Also noted: method as in Yele et al., 2020, 2021. To be noted: ref Yele et al., 2020, 2021; cited from earlier work.
In test [11] the test system is Escherichia coli (NCIM 2065). Kind of test: Minimum bactericidal concentration (MBC). To be noted: E. Coli (NCIM 2065); for MBC/MIC: ratio ≤2 bactericidal, ≥4 tolerance. It counts as cell-based. The method, then: as §1
In test [12] the target is T1, E. coli ParE enzyme (Escherichia coli, UniProt P20083).
T1 construct: purchased ProFoldin, Hudson, United States
T1 sequence (P20083 whole entry): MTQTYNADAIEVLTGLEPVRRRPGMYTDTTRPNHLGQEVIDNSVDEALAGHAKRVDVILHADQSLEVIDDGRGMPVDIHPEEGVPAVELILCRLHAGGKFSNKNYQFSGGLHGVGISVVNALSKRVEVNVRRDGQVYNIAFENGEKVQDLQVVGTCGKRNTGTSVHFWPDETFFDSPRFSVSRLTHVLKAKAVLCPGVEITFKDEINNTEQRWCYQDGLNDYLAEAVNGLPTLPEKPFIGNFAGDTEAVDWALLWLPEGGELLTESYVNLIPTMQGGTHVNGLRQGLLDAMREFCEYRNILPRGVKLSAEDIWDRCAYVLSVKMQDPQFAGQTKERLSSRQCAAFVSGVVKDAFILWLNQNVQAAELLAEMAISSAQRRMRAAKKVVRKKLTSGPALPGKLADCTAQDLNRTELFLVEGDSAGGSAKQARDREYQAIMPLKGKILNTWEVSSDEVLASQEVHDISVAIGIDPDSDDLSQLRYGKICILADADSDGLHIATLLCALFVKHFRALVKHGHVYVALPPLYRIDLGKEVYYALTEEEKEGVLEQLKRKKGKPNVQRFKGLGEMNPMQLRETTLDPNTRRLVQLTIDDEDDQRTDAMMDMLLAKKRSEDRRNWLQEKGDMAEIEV
T1 sequence (P0AFI2 whole entry, further chain): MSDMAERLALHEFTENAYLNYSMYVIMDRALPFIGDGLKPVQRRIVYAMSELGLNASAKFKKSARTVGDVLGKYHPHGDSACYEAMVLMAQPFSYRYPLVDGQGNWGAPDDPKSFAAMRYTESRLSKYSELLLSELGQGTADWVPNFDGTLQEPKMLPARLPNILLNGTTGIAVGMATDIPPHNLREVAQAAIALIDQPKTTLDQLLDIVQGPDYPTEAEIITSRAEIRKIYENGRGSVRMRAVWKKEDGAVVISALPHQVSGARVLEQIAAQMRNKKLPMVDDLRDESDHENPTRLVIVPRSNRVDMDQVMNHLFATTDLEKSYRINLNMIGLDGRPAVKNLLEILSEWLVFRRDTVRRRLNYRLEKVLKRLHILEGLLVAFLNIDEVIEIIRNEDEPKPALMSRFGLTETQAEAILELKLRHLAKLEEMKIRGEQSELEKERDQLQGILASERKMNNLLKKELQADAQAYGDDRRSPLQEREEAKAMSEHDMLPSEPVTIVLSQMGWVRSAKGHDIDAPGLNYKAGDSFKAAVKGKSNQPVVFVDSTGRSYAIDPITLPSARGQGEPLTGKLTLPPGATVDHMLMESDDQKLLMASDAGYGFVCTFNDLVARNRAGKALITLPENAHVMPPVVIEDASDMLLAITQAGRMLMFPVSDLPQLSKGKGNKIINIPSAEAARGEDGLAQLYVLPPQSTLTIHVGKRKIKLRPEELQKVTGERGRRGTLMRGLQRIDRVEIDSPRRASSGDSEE
Kind of test: E. coli ParE ATPase enzyme inhibition assay (ProFoldin kit, malachite green). It counts as biochemical. The note with it: ATPase activity, mean ± SD (n = 3). The procedure: The assay was performed as per the standard protocol provided by the ProFoldin. […] ParE hydrolyzes ATP as the source of molecular energy to perform decatenation reactions. Fluoroquinolones and aminocoumarins usually block ATPase activity to hinder the biological activities of topoisomerase II. Thus, the topoisomerase ATPase assay can be used for high-throughput screening of topoisomerase inhibitors. The ATPase activity of the E. coli ParE enzyme was based on the detection of inorganic phosphate produced by the hydrolysis of ATP in the presence of DNA. The phosphate is detected using a microplate reader at an absorbance wavelength of 650 nm. The selected compounds were tested for the inhibition of ATPase activity of ParE enzyme. […] The reaction mixture was incubated for 1 h at 37°C and then quenched with 45 μL of Dye. Incubate for 5 min, and the absorbance was measured at 650 nm. The IC50 values were determined from the absorbance readings using no enzyme and no compound controls. They were calculated using the non-linear regression curve fit method.

In test [13] the test system is Bacillus subtilis (NCIM 2545). Also noted: method as in Yele et al., 2020, 2021. To be noted: ref Yele et al., 2020, 2021; cited from earlier work.
Test [14] deals with Mycobacterium tuberculosis (NCIM 2984). More on the design: method as in Yele et al., 2020, 2021. The note with it: ref Yele et al., 2020, 2021; cited from earlier work.

Converted amounts (≈) assume the structure as drawn.

Broadly, the MBC is the smallest concentration meeting the test's criterion for killing. Low readings indicate more potent killing, high ones less potent killing. On to `Cc1ccc(S(=O)(=O)NC(=O)COc2ccccc2NC(=O)CCl)cc1` [Compound 18], for which the “Minimum inhibitory concentration (MIC) S. e” value in test [1] is listed as 3.96. Moreover, the “Minimum inhibitory concentration (MIC) K. p” value in test [2] is recorded as 5.25. Moreover, the values for the Minimum inhibitory concentration in [3], in test [5] and in test [9] were 1.81 ± 0.40 µg/mL (≈ 4.56 µM), 1.74 ± 0.21 µg/mL (≈ 4.38 µM) and 1.42 ± 0.23 µg/mL (≈ 3.58 µM), respectively. The “Minimum inhibitory concentration (MIC) S. a” value in test [4] is reported as 2.48. Also, the MBC in [6] came to 3.74 ± 0.16 µg/mL (≈ 9.42 µM); in test [7], 1.81 ± 0.40 µg/mL (≈ 4.56 µM); in test [11], 1.42 ± 0.23 µg/mL (≈ 3.58 µM). Moreover, the MBC/MIC in [6] was 2; in test [7] it was 1; in test [11] it was 1. In addition, the “Minimum inhibitory concentration (MIC) P. a” value in [8] is reported as 4.67. Further, in test [10], the “Minimum inhibitory concentration (MIC) E. c” value is recorded as 5.20. In addition, the “IC50 against E. coli ParE enzyme” value in test [12] turned out to be 1.81 µg/mL (≈ 4.56 µM). For the same compound, the “Minimum inhibitory concentration (MIC) B. s” value in test [13] is on record as 3.52. Also, the “Minimum inhibitory concentration (MIC) M. t” value in [14] is given as 4.62.
With `O=C(CSc1nc2ccccc2s1)Nc1ccccc1` [Compound 23], the “Minimum inhibitory concentration (MIC) S. e” value in test [1] is 1.51. The “Minimum inhibitory concentration (MIC) K. p” value in test [2] is 1.62. Further, the Minimum inhibitory concentration in test [3] came to 0.94 ± 0.04 µg/mL (≈ 3.13 µM); in test [5] it was 0.75 ± 0.11 µg/mL (≈ 2.5 µM); in [9], 0.95 ± 0.05 µg/mL (≈ 3.16 µM). Besides, the “Minimum inhibitory concentration (MIC) S. a” value in test [4] is reported as 1.84. The values for the MBC in test [6], in [7] and in test [11] were 0.75 ± 0.11 µg/mL (≈ 2.5 µM), 0.94 ± 0.04 µg/mL (≈ 3.13 µM) and 0.95 ± 0.05 µg/mL (≈ 3.16 µM), respectively. Moreover, the MBC/MIC in test [6], in [7] and in [11] was 1 in each case. Also, the “Minimum inhibitory concentration (MIC) P. a” value in test [8] was 1.88. Further, the “Minimum inhibitory concentration (MIC) E. c” value in test [10] is 2.11. For the same compound, the “IC50 against E. coli ParE enzyme” value in test [12] came out at 1.76 µg/mL (≈ 5.86 µM). The “Minimum inhibitory concentration (MIC) B. s” value in test [13] was 1.27. Moreover, in test [14], the “Minimum inhibitory concentration (MIC) M. t” value is 1.74.
As to `O=C(CNc1nc2ccccc2s1)Nc1ccccc1` [Compound 26], in test [1], the “Minimum inhibitory concentration (MIC) S. e” value is given as 8.14. Also, in [2], the “Minimum inhibitory concentration (MIC) K. p” value is 1.31. The figures for the Minimum inhibitory concentration in test [3], in test [5] and in test [9] were 2.77 ± 0.21 µg/mL (≈ 9.78 µM), 2.78 ± 0.20 µg/mL (≈ 9.81 µM) and 2.64 ± 0.31 µg/mL (≈ 9.32 µM), respectively. The “Minimum inhibitory concentration (MIC) S. a” value in test [4] is on record as 0.98. The MBC was found to be 4.32 ± 0.10 µg/mL (≈ 15.2 µM) in test [6], 0.86 ± 0.13 µg/mL (≈ 3.04 µM) in test [7] and 0.72 ± 0.05 µg/mL (≈ 2.54 µM) in test [11]. Also, the MBC/MIC in [6] came to 4; in [7] it was 1; in [11], 1. In test [8], the “Minimum inhibitory concentration (MIC) P. a” value is 1.22. Also, the “Minimum inhibitory concentration (MIC) E. c” value in [10] was 1.05. The “IC50 against E. coli ParE enzyme” value in test [12] amounted to 1.54 µg/mL (≈ 5.43 µM). For the same compound, the “Minimum inhibitory concentration (MIC) B. s” value in test [13] is on record as 3.65. The “Minimum inhibitory concentration (MIC) M. t” value in [14] is listed as 10.1.
With `COc1ccc(OCC(=O)Nc2ccc(C(=O)O)cc2)cc1` [Compound 27], the “Minimum inhibitory concentration (MIC) S. e” value in test [1] is listed as 0.94. Moreover, the “Minimum inhibitory concentration (MIC) K. p” value in test [2] is 1.40. For the same compound, the figures for the Minimum inhibitory concentration in test [3], in test [5] and in test [9] were 1.71 ± 0.24 µg/mL (≈ 5.68 µM), 1.06 ± 0.14 µg/mL (≈ 3.52 µM) and 1.59 ± 0.38 µg/mL (≈ 5.28 µM), respectively. Further, in test [4], the “Minimum inhibitory concentration (MIC) S. a” value was 0.94. In addition, the MBC in test [6] is 1.06 ± 0.14 µg/mL (≈ 3.52 µM); in test [7], 3.55 ± 0.07 µg/mL (≈ 11.8 µM); in [11] it was 1.59 ± 0.38 µg/mL (≈ 5.28 µM). Further, the MBC/MIC in [6] was 1; in test [7] it was 2; in test [11] it was 1. Further, the “Minimum inhibitory concentration (MIC) P. a” value in [8] is listed as 2.21. Moreover, the “Minimum inhibitory concentration (MIC) E. c” value in test [10] is recorded as 0.98. Further, the “IC50 against E. coli ParE enzyme” value in test [12] was found to be 1.30 µg/mL (≈ 4.31 µM). Also, the “Minimum inhibitory concentration (MIC) B. s” value in test [13] is recorded as 3.06. Also, the “Minimum inhibitory concentration (MIC) M. t” value in test [14] is listed as 0.79.
